pIC50: −log10 of the molar value. Activity calls are given as the source filed them. No cut-off for these calls is given here.
Experiments:
[1] = Dark toxicity in human HeLa cells assessed as reduction in cell viability measured after 4 hrs by resazurin dye based fluorescence assay
[2] = test system: U-251; assay: Cytotoxicity against human U-251 cells assessed as reduction in cell viability measured after 72 hrs by MTS assay; assay type: functional, cell-based; settings: U-251, 72 h
[3] = test system: K562; assay: Cytotoxicity against human K562 cells assessed as reduction in cell viability measured after 72 hrs by MTS assay; assay type: functional, cell-based; settings: K562, 72 h
[4] = test system: HCT-116; assay: Cytotoxicity against human HCT-116 cells assessed as reduction in cell viability measured after 72 hrs by MTS assay; assay type: functional, cell-based; settings: HCT-116, 72 h
[5] = test system: MCF7; assay: Cytotoxicity against human MCF7 cells assessed as reduction in cell viability measured after 72 hrs by MTS assay; assay type: functional, cell-based; settings: MCF7, 72 h
[6] = test system: PANC-1; assay: Cytotoxicity against human PANC-1 cells assessed as reduction in cell viability measured after 72 hrs by MTS assay; assay type: functional, cell-based; settings: PANC-1, 72 h
[7] = test system: NHDF; assay: Cytotoxicity against NHDF cells assessed as reduction in cell viability measured after 72 hrs by MTS assay; assay type: cell-based; settings: Homo sapiens
[8] = test system: PANC-1; assay: Induction of autophagy in human PANC-1 cells assessed as increase in LC3 expression at 25 uM measured after 24 hrs by muse cell analyzer based fluorescence assay relative to control; assay type: functional
[9] = Drug localization in lysosomes of human MCF7 cells at 25 uM measured after 2 hrs by lysotracker red DND-99 dye based microscopic analysis; assay type: ADME, subcellular, Lysosome; settings: mcf7, 2 h
[10] = Drug localization in mitochondria of human MCF7 cells at 25 uM measured after 2 hrs by mitotracker orange dye based microscopic analysis; assay type: ADME; settings: mcf7, 2 h
[11] = test system: MCF7; assay: Up regulation of p53 expression in human MCF7 cells at 5 uM measured after 24 hrs by Western blot analysis; assay type: functional, cell-based
[12] = test system: PANC-1; assay: Up regulation of p53 expression in human PANC-1 cells at 5 uM measured after 24 hrs by Western blot analysis relative to control; assay type: functional, cell-based

Question: For `Clc1cc(-c2cccnc2)nc(-c2ccccn2)c1`, which IC50 at 4 h [1] is on record?
Answer: 26500 nM

Question: For `CN(C)c1cc(-c2cccnc2)nc(-c2ccccn2)c1`, which IC50 at 4 h [1] is on record?
Answer: 19600 nM

Question: With `CCCCCCCCCCn1cc(-c2ccc(-c3cc(-c4nccs4)nc(-c4nccs4)c3)cc2)nn1` as the molecule, how does the pIC50 [2] read?
Answer: < 4.60

Question: What about the pIC50 [3] of the same molecule?
Answer: < 4.60

Question: And the pIC50 [4]?
Answer: < 4.60

Question: And the pIC50 [5]?
Answer: < 4.60

Question: What about the pIC50 [6] of the same molecule?
Answer: < 4.60

Question: With `CCCCCCCCn1c2ccccc2c2cc(-c3cn(-c4ccc(-c5cc(-c6ccccn6)nc(-c6ccccn6)c5)cc4)nn3)ccc21` as the molecule, how does the pIC50 [2] read?
Answer: 4.99

Question: And the pIC50 [3]?
Answer: 5.26

Question: And the pIC50 [7]?
Answer: < 4.60

Question: What about the pIC50 [4] of the same molecule?
Answer: 5.20

Question: And the pIC50 [5]?
Answer: 5.00

Question: And the pIC50 [6]?
Answer: 5.45

Question: With `Cc1ccc(NC(=O)c2ccc(CN3CCN(C)CC3)cc2)cc1Nc1nccc(-c2cccnc2)n1` [IMATINIB] as the molecule, how does the “fold change (FC)” value [8] read?
Answer: 2

Question: With `CCCCCCCCCCn1cc(-c2ccc(-c3cc(-c4cnccn4)nc(-c4cnccn4)c3)cc2)nn1` as the molecule, how does the pIC50 [2] read?
Answer: < 4.60

Question: And the pIC50 [3]?
Answer: < 4.60

Question: And the pIC50 [4]?
Answer: < 4.60

Question: What about the pIC50 [5] of the same molecule?
Answer: < 4.60

Question: And the pIC50 [6]?
Answer: < 4.60

Question: With `CC1(C)c2ccccc2-c2ccc(-c3cn(-c4ccc(-c5cc(-c6ccccn6)nc(-c6ccccn6)c5)cc4)nn3)cc21` as the molecule, how does the pIC50 [2] read?
Answer: 5.73

Question: And the pIC50 [3]?
Answer: 6.20

Question: And the pIC50 [7]?
Answer: < 4.60

Question: What about the pIC50 [4] of the same molecule?
Answer: 5.89

Question: And the pIC50 [5]?
Answer: 5.97

Question: What about the pIC50 [6] of the same molecule?
Answer: 5.73

Question: What about the Drug uptake [9] of the same molecule?
Answer: Active

Question: What about the Drug uptake [10] of the same molecule?
Answer: Active

Question: For `COc1cc(-c2cccnc2)nc(-c2ccccn2)c1`, which IC50 at 4 h [1] is on record?
Answer: 40900 nM

Question: Which results are given for `c1ccc(-c2cn(-c3ccc(-c4cc(-c5ccccn5)nc(-c5ccccn5)c4)cc3)nn2)cc1`?
Answer: pIC50 [2]: 6.02; pIC50 [3]: 6.13; pIC50 [7]: < 4.60; pIC50 [4]: 6.60; pIC50 [5]: 6.32; pIC50 [6]: 6.54

Question: Which IC50 at 4 h [1] does the source give for `c1ccc(-c2cccc(-c3cccnc3)n2)nc1` here?
Answer: 35100 nM

Question: With `c1ccc(-c2cc(-c3ccc(-n4cc(-c5ccc6sc7ccccc7c6c5)nn4)cc3)cc(-c3ccccn3)n2)nc1` as the molecule, how does the pIC50 [2] read?
Answer: 5.62

Question: And the pIC50 [3]?
Answer: 5.13

Question: And the pIC50 [7]?
Answer: < 4.60

Question: And the pIC50 [4]?
Answer: 6.04

Question: What about the pIC50 [5] of the same molecule?
Answer: 5.76

Question: What about the pIC50 [6] of the same molecule?
Answer: 6.11

Question: Which results are given for `COc1cccc2c1C(=O)c1c(O)c3c(c(O)c1C2=O)C[C@@](O)(C(=O)CO)C[C@@H]3O[C@H]1C[C@H](N)[C@H](O)[C@H](C)O1` [DOXORUBICIN]?
Answer: pIC50 [2]: 7.28; pIC50 [3]: 7.72; Activity [11]: Active; pIC50 [7]: 6.86; Activity [12]: Active; pIC50 [5]: 6.39

Question: For `O=C(O)c1cc(-c2cccnc2)nc(-c2ccccn2)c1`, which IC50 at 4 h [1] is on record?
Answer: 50500 nM

Question: With `c1ccc(-c2cc(-c3ccc(-n4cc(-c5ccc(-c6cccs6)s5)nn4)cc3)cc(-c3ccccn3)n2)nc1` as the molecule, how does the pIC50 [2] read?
Answer: 5.44

Question: What about the pIC50 [3] of the same molecule?
Answer: 5.71

Question: What about the pIC50 [7] of the same molecule?
Answer: < 4.60

Question: And the pIC50 [4]?
Answer: 6.09

Question: And the pIC50 [5]?
Answer: 5.75

Question: And the pIC50 [6]?
Answer: 5.65

Question: Which results are given for `Oc1cn(-c2ccc(-c3cc(-c4ccccn4)nc(-c4ccccn4)c3)cc2)nn1`?
Answer: pIC50 [2]: 5.85; pIC50 [3]: 5.88; pIC50 [7]: 4.93; pIC50 [4]: 6.11; pIC50 [5]: 6.23; pIC50 [6]: 6.16

Question: Which results are given for `N#Cc1ccc(-c2cn(-c3ccc(-c4cc(-c5ccccn5)nc(-c5ccccn5)c4)cc3)nn2)cc1`?
Answer: pIC50 [2]: 5.74; pIC50 [3]: 5.80; pIC50 [7]: 5.69; pIC50 [4]: 5.88; pIC50 [5]: 6.43; pIC50 [6]: 6.04

Question: Which results are given for `CCCCCCCCCCCCc1cn(-c2ccc(-c3cc(-c4ccccn4)nc(-c4ccccn4)c3)cc2)nn1`?
Answer: pIC50 [2]: 4.69; pIC50 [3]: 4.70; pIC50 [7]: 5.04; pIC50 [4]: 4.87; pIC50 [5]: 4.95; pIC50 [6]: < 4.60

Question: With `CCCCCOc1ccc(-c2cn(-c3ccc(-c4cc(-c5ccccn5)nc(-c5ccccn5)c4)cc3)nn2)cc1` as the molecule, how does the pIC50 [2] read?
Answer: 6.22

Question: And the pIC50 [3]?
Answer: 5.75

Question: What about the pIC50 [7] of the same molecule?
Answer: < 4.60

Question: What about the pIC50 [4] of the same molecule?
Answer: 6.31

Question: And the pIC50 [5]?
Answer: 6.06

Question: What about the pIC50 [6] of the same molecule?
Answer: 6.43

Reference: ChEMBL document CHEMBL4706629, “New derivatives of 4'-phenyl-2,2':6',2″-terpyridine as promising anticancer agents” (Eur J Med Chem, 2021)
